Test results as given in patent US11406622B2, “Glaucocalyxin a derivative, pharmaceutically acceptable salt thereof, or pharmaceutical composition thereof and uses thereof in preparation of drugs for treating psoriasis” (SUZHOU PHARMAVAN CO., LTD., priority 2017, dated 2022).
Counter-ions that a name gives are not always drawn.

What was measured:
[1] = system: human keratinocytes (HaCaT); assay: Effect on proliferation of human keratinocytes, CCK-8, 48 h (Example 5); type: cell-based; settings: 48 hours of treatment
Method: In this example, the glaucocalyxin A derivatives of the present application, or pharmaceutically acceptable salts thereof, were examined for the effect on the proliferation of human keratinocytes. In this example, the glaucocalyxin A derivatives as shown in Table 1 were examined by using the following procedure. A cell suspension was prepared and inoculated into three 96-well plates at 8000 cells in a volume of 150 μl per well, which were then cultured overnight in an incubator at 37° C., 5% CO2. On the next day, 50 μl of test compound solution at different concentrations was added to each well. Triplicate wells were set up for each concentration. A vehicle control group (without compound), a cell control group (without compound and vehicle), and a blank medium control group (without cells, a well for null adjustment) were also set up, and cultured for an additional 48 hours. CCK-8 staining working solution was added at 110 μL per well, and cultured for additional 1-4 h. At the end of the culture, the absorbances were measured at 450 nm (OD450 nm) on a Bio-Tek enzyme-linked immunosorbent assay. The results were expressed as the mean OD450 nm value of triplicates±standard deviation (x±sd). The Origin 7.0 was used for plotting and analysis. A fitting curve was obtained by plotting the OD value of each group against the logarithmic concentration of the test compound, and then the IC50 value was determined.

[2] = system: BALB/c mice; assay: Acute toxicity in BALB/c mice, single tail-vein injection (Example 9); type: in vivo, mouse; settings: single intravenous injection, 10 mg/kg
Text: In this example, Compound 23 and Compound 24 were detected for their acute toxicities, and the detection method was as follows.
Experimental procedure: 40 BALB/c mice, half male and half female, were randomly divided into groups after weight measurement. The weight of an individual should be within the range of the average body weight±20%. Animals should be allowed to acclimatize to the environment for at least 5 days before the test, and healthy (if female, it must be un-pregnant) mice were selected as test animals. The main inspections during the acclimatization period included: whether it met the quality indicators required at the time of ordering; general state check; and whether the weight reached the weight range required by the test. Unqualified abnormal animals were not included in this test. A single tail-vein injection was administrated to the mice at a low, medium, or high dose, which was 5 mg/kg, 10 mg/kg, or 40 mg/kg respectively according to a blank preparation pre-test. An equal volume of vehicle was intravenously injected to establish a control group.
Mice were observed once respectively at 0 to 2 hours and 4 to 6 hours after each administration. If toxic symptoms occurred, the number of observations could be increased. (2) Gross anatomy observation: All the surviving mice in each group were dissected and observed on the 8th day of the experiment. The abnormal organs and tissues found in the observation of administration sites and in the gross anatomy observation that might be related to the test samples were photographed and recorded. (3) Disposal of dying animals: The state of the mouse and the observation time were recorded, and the body weight was measured. (4) Disposal of dead animals: The time of death or the time when the death was found was recorded, the body weight was measured, and then the dissection was quickly performed for gross observation to speculate the cause of death.

[3] = system: mouse spleen lymphocytes; assay: ConA-induced proliferation of mouse spleen lymphocytes, MTT (Example 8); type: cell-based; settings: 48 h, 5 μg/mL ConA
Method: In this example, the glaucocalyxin A derivatives and pharmaceutically acceptable salts thereof were detected for the effect thereof on ConA-induced proliferation of mouse spleen lymphocytes.
2×10^7/mL cell suspension was prepared and a 5 μg/μL ConA stock solution was added thereto at a final concentration of 5 μg/mL. The resulting mixture was inoculated into a 96-well culture plate at 0.1 mL per well. Then 0.1 mL of test compound at different concentrations was added to each well. Triplicate or quadruplicate wells were set up for each group, and a vehicle control group (without compound), a stimulant control group (with ConA, without compound, and without vehicle), a cell control group (without ConA, without compound, and without vehicle), and a blank medium control group (without cells, a well for null adjustment) were also set up, and cultured at 37° C., 5% CO2 for 48 h. MTT solution at 5 mg/mL was added at 20 μl per well, and cultured for an additional 4 hours. The culture plate was taken out and centrifuged at 1000 rpm for 10 min. The supernatant of each well was aspirated, and 100 μL of SDS cell lysis solution was added to each well, and cultured overnight. On the next day, the absorbance at 550 nm (OD550nm) was measured on an enzyme-linked immunoassay analyzer. The results were expressed as the mean OD550nm value of the triplicates or quadruplicates±standard deviation (x±sd). SPSS software version 17.0 was used for statistical analysis of the mean values, that is, the vehicle group was compared with the stimulant group, and the test group of each compound concentration was compared with the corresponding vehicle control group. The cell survival rate of each group was calculated according to the mean value for the compound treatment group and the mean value for the vehicle control group, that is, the cell survival rate (%)=the mean value for the compound treatment group/the mean value for the vehicle control group×100%. A linear regression equation was obtained by plotting the cell survival rate of each group against the concentration of the test compound, statistical test of the correlation coefficient was conducted, and then the IC50 value was determined.

C=C1C(=O)C23C(O)CC4C(C)(C)c5nc(N)sc5CC4(C)C2CCC1C3O (stereo not shown) [Compound 01]
IC50 [1]: 3.21 µM

C=C1C(=O)C23C(O)CC4C(C)(C)c5nc(N)sc5CC4(C)C2CCC1C3O (stereo not shown) [Compound 02]
IC50 [1]: 3.52 µM

C=C1C(=O)C23C(O)CC4C(C)(C)c5nc(N)sc5CC4(C)C2CCC1C3O (stereo not shown) [Compound 03]
IC50 [1]: 4.02 µM

C=C1C(=O)C23C(O)CC4C(C)(C)c5nc(N)sc5CC4(C)C2CCC1C3O (stereo not shown) [Compound 04]
IC50 [1]: 4.1 µM

C=C1C(=O)C23C(O)CC4C(C)(C)c5nc(N)sc5CC4(C)C2CCC1C3O (stereo not shown) [Compound 05]
IC50 [1]: 3.45 µM

C=C1C(=O)C23C(O)CC4C(C)(C)c5nc(N)sc5CC4(C)C2CCC1C3O (stereo not shown) [Compound 06]
IC50 [1]: 2.91 µM

C=C1C(=O)C23C(O)CC4C(C)(C)c5nc(N)sc5CC4(C)C2CCC1C3O (stereo not shown) [Compound 07]
IC50 [1]: 3.28 µM

C=C1C(=O)C23C(O)CC4C(C)(C)c5nc(N)sc5CC4(C)C2CCC1C3O (stereo not shown) [Compound 08]
IC50 [1]: 2.85 µM

C=C1C(=O)C23C(O)CC4C(C)(C)c5nc(N)sc5CC4(C)C2CCC1C3O (stereo not shown) [Compound 09]
IC50 [1]: 2.42 µM

C=C1C(=O)C23C(O)CC4C(C)(C)c5nc(N)sc5CC4(C)C2CCC1C3O (stereo not shown) [Compound 10]
IC50 [1]: 3.86 µM

C=C1C(=O)C23C(O)CC4C(C)(C)c5nc(N)sc5CC4(C)C2CCC1C3O (stereo not shown) [Compound 11]
IC50 [1]: 3 µM

C=C1C(=O)C23C(O)CC4C(C)(C)c5nc(NN)sc5CC4(C)C2CCC1C3O (stereo not shown) [Compound 12]
IC50 [1]: 1.21 µM

C=C1C(=O)C23C(O)CC4C(C)(C)c5nc(Nc6ccncc6)sc5CC4(C)C2CCC1C3O (stereo not shown) [Compound 13]
IC50 [1]: 3.62 µM

C=C1C(=O)C23C(O)CC4C(C)(C)c5nc(NCCC)sc5CC4(C)C2CCC1C3O (stereo not shown) [Compound 14]
IC50 [1]: 7 µM

C=C1C(=O)C23C(O)CC4C(C)(C)c5nc(NC(C)C)sc5CC4(C)C2CCC1C3O (stereo not shown) [Compound 15]
IC50 [1]: 6.95 µM

C=C1C(=O)C23C(O)CC4C(C)(C)c5nc(NCCCC)sc5CC4(C)C2CCC1C3O (stereo not shown) [Compound 16]
IC50 [1]: 8.88 µM

C=C1C(=O)C23C(O)CC4C(C)(C)c5nc(NCCCCCC)sc5CC4(C)C2CCC1C3O (stereo not shown) [Compound 17]
IC50 [1]: 4.29 µM

C=CCNc1nc2c(s1)CC1(C)C(CC(O)C34C(=O)C(=C)C(CCC13)C4O)C2(C)C (stereo not shown) [Compound 18]
IC50 [1]: 7.24 µM

C=C1C(=O)C23C(O)CC4C(C)(C)c5nc(NC6CCCCC6)sc5CC4(C)C2CCC1C3O (stereo not shown) [Compound 19]
IC50 [1]: 8.16 µM

C=C1C(=O)C23C(O)CC4C(C)(C)c5nc(Nc6ccccc6)sc5CC4(C)C2CCC1C3O (stereo not shown) [Compound 20]
IC50 [1]: 9.31 µM

C=C1C(=O)C23C(O)CC4C(C)(C)c5nc(NCc6ccccc6)sc5CC4(C)C2CCC1C3O (stereo not shown) [Compound 21]
IC50 [1]: 9.2 µM

C=C1C(=O)C23C(O)CC4C(C)(C)c5nc(N(C)C)sc5CC4(C)C2CCC1C3O (stereo not shown) [Compound 22]
IC50 [1]: 0.95 µM

Br.C=C1C(=O)C23C(O)CC4C(C)(C)c5nc(NC)sc5CC4(C)C2CCC1C3O (stereo not shown) [Compound 24]
IC50 [1]: 3.17 µM | animals that died [2]: All animals

C=C1C(=O)C23C(O)CC4C(C)(C)c5nc(NCC)sc5CC4(C)C2CCC1C3O (stereo not shown) [Compound 25]
IC50 [1]: 5.49 µM

C=C1C(=O)C23C(O)CC4C(C)(C)c5nc(NCCC)sc5CC4(C)C2CCC1C3O (stereo not shown) [Compound 26]
IC50 [1]: 7.86 µM

C=C1C(=O)C23C(O)CC4C(C)(C)c5nc(NC(C)C)sc5CC4(C)C2CCC1C3O (stereo not shown) [Compound 27]
IC50 [1]: 6.92 µM

C=C1C(=O)C23C(O)CC4C(C)(C)c5nc(N(CC)CC)sc5CC4(C)C2CCC1C3O (stereo not shown) [Compound 28]
IC50 [1]: 1.26 µM

C=C1C(=O)C23C(O)CC4C(C)(C)c5nc(N(CCC)CCC)sc5CC4(C)C2CCC1C3O (stereo not shown) [Compound 29]
IC50 [1]: 1.85 µM

C=C1C(=O)C23C(O)CC4C(C)(C)c5nc(N(C(C)C)C(C)C)sc5CC4(C)C2CCC1C3O (stereo not shown) [Compound 30]
IC50 [1]: 2.37 µM

C=C1C(=O)[C@@]23[C@H](O)C[C@@H]4C(C)(C)C(=O)CC[C@@]4(C)[C@@H]2CC[C@@H]1[C@H]3O [Compound 31, glaucocalyxin A]
IC50 ([1]; Homo sapiens): 30.5 µM

CN(C)C[C@@H]1C(=O)C23C(O)C1CCC2[C@]1(C)CCC(=O)C(C)(C)[C@H]1C[C@H]3O (stereo partly shown) [Compound 32, dimethylamino glaucocalyxin A hydrochloride, reference compound]
IC50 ([1]; Homo sapiens): 18.7 µM

CC(C)[C@]12O[C@H]1[C@@H]1O[C@]13[C@]1(O[C@H]1C[C@H]1C4=C(CC[C@@]13C)C(=O)OC4)[C@@H]2O [triptolide, reference compound]
OD550nm value (x ± sd) ([3]; Table 4, 0.001 μg/mL): 1.03 | Survival rate (%) ([3]; Table 4, 0.001 μg/mL): 98% | OD550nm value (x ± sd) ([3]; Table 4, 0.1 μg/mL): 0.42 | Survival rate (%) ([3]; Table 4, 0.1 μg/mL): 40% | effect on ConA-induced proliferation of mouse spleen lymphocytes (in words) ([3]; range of concentrations tested): varying degrees of inhibition
